Data reported in publication PMC7612957 (Science (New York, N.Y.), 2020).
“Also recorded” adds a separate entry of the source. Read-outs that look alike come from different tables or passages of the source. Where no end group is shown, it is not given here.

What was measured:
NRP1 = conditions: selective NRP1 antagonist, binds the b1 CendR binding pocket; ref [14]; cited from earlier work
NRP1 b1 domain [1] = molecular target: T1, NRP1 b1 domain (Homo sapiens, UniProt O14786); experiment: ITC binding to NRP1 b1 domain
SARS-CoV-2 = format: cell-based
NRP1 b1 domain [2] = molecular target: T1, NRP1 b1 domain; experiment: ITC competition: EG00229 versus S1 CendR peptide for NRP1 b1; format: binding; conditions: pre-incubation with EG00229, N=3
NRP1 b1 domain [3] = molecular target: T2, NRP1 b1 domain; experiment: ITC
T2 chain: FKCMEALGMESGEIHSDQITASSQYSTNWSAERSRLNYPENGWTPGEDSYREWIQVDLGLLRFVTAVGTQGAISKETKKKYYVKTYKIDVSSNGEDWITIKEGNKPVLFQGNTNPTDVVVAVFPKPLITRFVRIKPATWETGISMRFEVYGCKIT

NRP1 b1 domain [4] = molecular target: T2, NRP1 b1 domain; experiment: ITC

Molecule: NC(N)=NCCC[C@H](NC(=O)c1sccc1NS(=O)(=O)c1cccc2nsnc12)C(=O)O [EG00229]
- inhibition of VEGF-A binding (NRP1): inhibits VEGF-A binding
- Kd (NRP1 b1 domain [1]; read-out: Kd for NRP1 b1 domain, EG00229, pH 5.5, N=3, fit with 1-to-1 ratio binding): 11 µM
- Kd (NRP1 b1 domain [1]; read-out: Kd for NRP1 b1 domain, EG00229, pH 7.5, N=3, fit with 1-to-1 ratio binding): 5.1 µM
- reduction of SARS-CoV-2 infection by EG00229 (SARS-CoV-2): reduced the efficiency of SARS-CoV-2 infection
- inhibition of S1 CendR peptide binding to b1 (NRP1 b1 domain [2]): blocks S1 CendR peptide binding; also recorded: inhibited the direct binding between b1 and the S1 CendR peptide

Molecule: NSPRRAR [S1 CendR peptide]
- Kd (NRP1 b1 domain [1]; affinity for NRP1 b1 domain, pH 7.5, N=3, fit with 1-to-1 ratio binding): 20.3 µM

Molecule: NSPRRAR [S1 CendR peptide (679NSPRRAR685)]
- Kd (NRP1 b1 domain [3]): 13 µM
- Kd (NRP1 b1 domain [4]): 20.3 µM
